Assay results from ChEMBL document CHEMBL2150990, “Substrate-like water soluble lipase inhibitors from Filipendula kamtschatica” (Bioorg Med Chem Lett, 2012).

Assays:
[1] = target: T1, Pancreatic triacylglycerol lipase (Sus scrofa, UniProt P00591); assay: Inhibition of porcine pancreatic lipase using micellar solution of triolein as substrate preincubated for 5 mins before substrate addition measured after 30 mins
T1 sequence (P00591 whole entry): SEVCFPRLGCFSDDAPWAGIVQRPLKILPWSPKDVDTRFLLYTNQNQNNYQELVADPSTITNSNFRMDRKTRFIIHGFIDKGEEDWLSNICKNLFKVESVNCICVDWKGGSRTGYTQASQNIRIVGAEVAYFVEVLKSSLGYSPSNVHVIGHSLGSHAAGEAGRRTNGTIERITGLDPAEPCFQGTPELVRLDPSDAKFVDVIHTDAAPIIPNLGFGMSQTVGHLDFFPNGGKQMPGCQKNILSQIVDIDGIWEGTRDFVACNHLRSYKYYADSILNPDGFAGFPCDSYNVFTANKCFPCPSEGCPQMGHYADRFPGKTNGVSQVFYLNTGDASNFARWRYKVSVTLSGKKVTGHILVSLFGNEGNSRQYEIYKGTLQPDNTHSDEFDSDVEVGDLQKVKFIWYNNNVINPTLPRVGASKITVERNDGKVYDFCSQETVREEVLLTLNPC

[2] = target: T2, Pancreatic triacylglycerol lipase (Sus scrofa) (UniProt P00591); details: 0.4 uM
T2 sequence (whole entry): T1 sequence (P00591 whole entry)
Description: Inhibition of porcine pancreatic lipase using micellar solution of triolein as substrate at 0.4 uM preincubated for 5 mins before substrate addition measured after 30 mins

[3] = target: T2, Pancreatic triacylglycerol lipase (Sus scrofa); assay: Inhibition of porcine pancreatic lipase using micellar solution of triolein as substrate at 1 mM preincubated for 5 mins before substrate addition measured after 30 mins

Structure (SMILES)	IC50 [1] [µM]	inhibition [2] [%]	inhibition [3] [%]
O=C(/C=C/c1ccc(O)c(O)c1)O[C@@H](C(=O)O)[C@@H](O)COC(=O)c1cc(O)c(O)c(O)c1	246		
CCCCCCCCCCC[C@@H](C[C@@H]1OC(=O)[C@H]1CCCCCC)OC(=O)[C@H](CC(C)C)NC=O		55	
O=C(O)/C=C/c1ccc(O)c(O)c1 [CAFFEIC ACID]	> 1000		13
O=C(O)[C@H](O)[C@@H](O)CO [L-THREONIC ACID]	> 1000		30
O=c1c(O[C@@H]2O[C@H](CO)[C@H](O)[C@H](O)[C@H]2O[C@@H]2OC[C@@H](O)[C@H](O)[C@H]2O)c(-c2ccc(O)c(O)c2)oc2cc(O)cc(O)c12	300		
O=C(/C=C/c1ccc(O)c(O)c1)O[C@@H](COC(=O)c1cc(O)c(O)c(O)c1)[C@@H](O)C(=O)O	26		
O=C(O)c1cc(O)c(O)c(O)c1 [GALLIC ACID]	> 1000		4
